Assay [1] has as its system Hepatitis C virus subtype 1a. The assay is described as follows: Inhibition of NS5A in HCV genotype 1a assessed as reduction in replicon RNA level after 3 days by cell based RT-PCR method.
Assay [2] deals with Nonstructural protein 5A (Hepatitis C virus), Q5L478 [UNDEFINED MUTATION]. The assay is described as follows: Inhibition of NS5A L31V mutant in HCV genotype 1a assessed as reduction in replicon RNA level after 3 days by cell based RT-PCR method. The following applies: Hepatitis C virus subtype 1a.
Assay [3] relates to T1, Nonstructural protein 5A (Hepatitis C virus), Q5L478 [Y93H].
T1 sequence (whole entry): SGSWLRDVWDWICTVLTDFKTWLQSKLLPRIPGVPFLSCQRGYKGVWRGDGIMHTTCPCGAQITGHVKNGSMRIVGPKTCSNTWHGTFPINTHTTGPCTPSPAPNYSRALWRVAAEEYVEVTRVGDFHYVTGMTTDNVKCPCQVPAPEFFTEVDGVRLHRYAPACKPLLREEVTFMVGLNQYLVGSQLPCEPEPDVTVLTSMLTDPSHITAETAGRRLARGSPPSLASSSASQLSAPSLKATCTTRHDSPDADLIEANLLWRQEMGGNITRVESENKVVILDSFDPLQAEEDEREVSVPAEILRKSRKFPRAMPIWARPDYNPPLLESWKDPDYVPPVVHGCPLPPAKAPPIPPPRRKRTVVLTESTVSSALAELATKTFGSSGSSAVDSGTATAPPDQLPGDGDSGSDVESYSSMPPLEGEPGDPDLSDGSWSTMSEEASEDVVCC
The assay is described as follows: Inhibition of NS5A Y93H mutant in HCV genotype 1a assessed as reduction in replicon RNA level after 3 days by cell based RT-PCR method. The following applies: Hepatitis C virus subtype 1a.

The test system of assay [4] is Hepatitis C virus subtype 2b. Put plainly: Inhibition of NS5A in HCV genotype 2b assessed as reduction in replicon RNA level after 3 days by cell based RT-PCR method.
In assay [5] the test system is Hepatitis C virus subtype 3a. The assay is described as follows: Inhibition of NS5A in HCV genotype 3a assessed as reduction in replicon RNA level after 3 days by cell based RT-PCR method.

As to `COC(=O)N[C@H](C(=O)N1CCC[C@H]1c1ncc(-c2cc(F)c3c(c2)OC(c2ccccc2)n2c-3cc3cc(-c4cnc([C@H]5[C@@H]6[C@H](CN5C(=O)[C@@H](NC(=O)OC)C(C)C)C6(C)C)[nH]4)ccc32)[nH]1)C(C)C` (mixture of isomers), the EC90 in assay [1] was 0.02 nM; in assay [2], 21 nM; in assay [3], greater than 100 nM; in assay [4], 337 nM; in assay [5] it was greater than 10 nM.

Take `COC(=O)N[C@H](C(=O)N1CC[C@H](OC)[C@H]1c1ncc(-c2cc(F)c3c(c2)OC(c2cccc(OC)c2)n2c-3cc3cc(-c4cnc([C@@H]5[C@@H](OC)CCN5C(=O)[C@@H](NC(=O)OC)C(C)C)[nH]4)ccc32)[nH]1)C(C)C` (stereo partly specified): the concentration for an effect of 90% (EC90) worked out at 2.67 nM in assay [1]; 24.5 nM in assay [2]; 3.86 nM in assay [3]; 322 nM in assay [4]; 30 nM in assay [5].

With `COC(=O)N[C@H](C(=O)N1[C@@H]2CC(F)(F)[C@@H]2C[C@H]1c1ncc(-c2cc(F)c3c(c2)OC(c2cccc(OC)c2)n2c-3cc3cc(-c4cnc([C@@H]5C[C@@H]6[C@@H](CC6(F)F)N5C(=O)[C@@H](NC(=O)OC)C(C)C)[nH]4)ccc32)[nH]1)C(C)C` (stereo partly specified), the 90% effect concentration (EC90) in assay [1] was 0.017 nM; in assay [2] it was 0.078 nM; in assay [3], 52.6 nM; in assay [4], 58 nM; in assay [5], 0.29 nM.

Take `COC(=O)N[C@H](C(=O)N1[C@@H]2C[C@@H]2C[C@H]1c1ncc(-c2cc(F)c3c(c2)OC(c2cccc(OC)c2)n2c-3cc3cc(-c4cnc([C@@H]5C[C@H]6C[C@H]6N5C(=O)[C@@H](NC(=O)OC)C(C)C)[nH]4)ccc32)[nH]1)C(C)C` (stereo partly specified): the concentration for an effect of 90% (EC90) in assay [1] came out at 0.005 nM; in assay [2], 1.72 nM; in assay [3] it was 0.51 nM; in assay [4], 22.5 nM; in assay [5] it was 0.17 nM.

On to `COC(=O)N[C@H](C(=O)N1C[C@@H](OC)C[C@H]1c1ncc(-c2cc(F)c3c(c2)OC(c2cccc(OC)c2)n2c-3cc3cc(-c4cnc([C@@H]5C[C@H](OC)CN5C(=O)[C@@H](NC(=O)OC)C(C)C)[nH]4)ccc32)[nH]1)C(C)C` (stereo partly specified), for which the 90% effect concentration (EC90) was determined as 0.017 nM in assay [1]; 0.04 nM in assay [2]; 8.87 nM in assay [3]; 5.74 nM in assay [4]; 0.71 nM in assay [5].

On to `COC(=O)N[C@H](C(=O)N1C(C)CC[C@H]1c1ncc(-c2ccc3c(c2)OC(c2ccccc2)n2c-3cc3cc(-c4cnc([C@@H]5CCC(C)N5C(=O)[C@@H](NC(=O)OC)C(C)C)[nH]4)ccc32)[nH]1)C(C)C` (single isomer, unassigned; diastereomer A), for which the EC90 stood at 1.72 nM in assay [2], 64 nM in assay [3], 75 nM in assay [4] and 6.14 nM in assay [5].

Consider `COC(=O)N[C@H](C(=O)N1[C@@H]2CCCC[C@@H]2C[C@H]1c1ncc(-c2cc(F)c3c(c2)OC(c2cccc(OC)c2)n2c-3cc3cc(-c4cnc([C@@H]5C[C@H]6CCCC[C@H]6N5C(=O)[C@@H](NC(=O)OC)C(C)C)[nH]4)ccc32)[nH]1)C(C)C` (stereo partly specified), for which the 90% effect concentration (EC90) in assay [1] is 0.18 nM; in assay [2], 0.51 nM; in assay [3] it was 37.6 nM; in assay [4], 21 nM.

Consider `COC(=O)N[C@H](C(=O)N1C[C@H](F)C[C@H]1c1ncc(-c2cc(F)c3c(c2)OC(c2cccc(OC)c2)n2c-3cc3cc(-c4cnc([C@@H]5C[C@H]6C[C@H]6N5C(=O)[C@@H](NC(=O)OC)C(C)C)[nH]4)ccc32)[nH]1)C(C)C` (stereo partly specified), for which the concentration for an effect of 90% (EC90) in assay [1] was 0.032 nM; in assay [2] it was 0.92 nM; in assay [3] it was 5.15 nM; in assay [4], 52.2 nM.

For the molecule `COC(=O)N[C@H](C(=O)N1C[C@H](OC(F)F)C[C@H]1c1ncc(-c2cc(F)c3c(c2)OC(c2cccc(OC)c2)n2c-3cc3cc(-c4cnc([C@@H]5C[C@@H](OC(F)F)CN5C(=O)[C@@H](NC(=O)OC)C(C)C)[nH]4)ccc32)[nH]1)C(C)C` (stereo partly specified), the concentration for an effect of 90% (EC90) in assay [1] stood at 0.021 nM; in assay [3] it was 5.27 nM; in assay [4], 55.6 nM; in assay [5], 12.9 nM.

`COC(=O)N[C@H](C(=O)N1CCC[C@H]1c1ncc(-c2cc(F)c3c(c2)OC(c2cccc(OC)c2)n2c-3cc3cc(-c4cnc([C@@H]5C[C@@H](F)CN5C(=O)[C@@H](NC(=O)OC)C(C)C)[nH]4)ccc32)[nH]1)C(C)C` (stereo partly specified): the EC90 in assay [1] was found to be 0.01 nM; in assay [2], 0.29 nM; in assay [3], 1.81 nM; in assay [4], 33.6 nM.

Turning to `COC(=O)N[C@H](C(=O)N1C(C)CC[C@H]1c1ncc(-c2ccc3c(c2)OC(c2ccccc2)n2c-3cc3cc(-c4cnc([C@@H]5CCC(C)N5C(=O)[C@@H](NC(=O)OC)C(C)C)[nH]4)ccc32)[nH]1)C(C)C` (single isomer, unassigned; diastereomer B), the concentration for an effect of 90% (EC90) was 5.74 nM in assay [2], 158 nM in assay [3], 129 nM in assay [4] and 51.5 nM in assay [5].

As to `COC(=O)N[C@H](C(=O)N1CCC[C@H]1c1ncc(-c2cc(F)c3c(c2)OC(c2cccc(OC)c2)n2c-3cc3cc(-c4cnc([C@@H]5C[C@H]6C[C@H]6N5C(=O)[C@@H](NC(=O)OC)C(C)C)[nH]4)ccc32)[nH]1)C(C)C` (stereo partly specified), the EC90 worked out at 0.007 nM in assay [1]; 0.084 nM in assay [2]; 1.64 nM in assay [3]; 19.4 nM in assay [4]; 0.15 nM in assay [5].

As for `COC(=O)N[C@H](C(=O)N1CC2(CC2)C[C@H]1c1ncc(-c2cc(F)c3c(c2)OC(c2cccc(OC)c2)n2c-3cc3cc(-c4cnc([C@@H]5CC6(CC6)CN5C(=O)[C@@H](NC(=O)OC)C(C)C)[nH]4)ccc32)[nH]1)C(C)C` (stereo partly specified), the concentration for an effect of 90% (EC90) worked out at 0.011 nM in assay [1]; 0.05 nM in assay [2]; 23.7 nM in assay [3]; 38.8 nM in assay [4]; 0.16 nM in assay [5].

For `COC(=O)N[C@H](C(=O)N1CCC[C@H]1c1ncc(-c2cc(F)c3c(c2)OC(c2cccc(OC)c2)n2c-3cc3cc(-c4cnc([C@@H]5[C@H]6CC[C@H](C6)N5C(=O)[C@@H](NC(=O)OC)C(C)C)[nH]4)ccc32)[nH]1)C(C)C` (stereo partly specified), the EC90 in assay [1] stood at 0.002 nM; in assay [2] it was 0.9 nM; in assay [3], 26.1 nM; in assay [4], 51.8 nM; in assay [5] it was 0.92 nM.

Turning to `COC(=O)N[C@H](C(=O)N1CCC[C@H]1c1ncc(-c2ccc3c(c2)cc2n3C(c3cccc(OC)c3)Oc3cc(-c4cnc([C@@H]5C[C@H]6C[C@H]6N5C(=O)[C@@H](NC(=O)OC)C(C)C)[nH]4)cc(F)c3-2)[nH]1)C(C)C` (stereo partly specified), the 90% effect concentration (EC90) in assay [1] came to 0.026 nM; in assay [2] it was 0.36 nM; in assay [3], 10.9 nM; in assay [4], 49.3 nM.

For the molecule `COC(=O)N[C@H](C(=O)N1C[C@H](OC)C[C@H]1c1ncc(-c2cc(F)c3c(c2)OC(c2cccc(OC)c2)n2c-3cc3cc(-c4cnc([C@@H]5C[C@@H](OC)CN5C(=O)[C@@H](NC(=O)OC)C(C)C)[nH]4)ccc32)[nH]1)C(C)C` (stereo partly specified), the EC90 in assay [1] was found to be 0.015 nM; in assay [2], 0.19 nM; in assay [3] it was 0.79 nM; in assay [4], 90.7 nM; in assay [5], 5.52 nM.

For `COC(=O)N[C@H](C(=O)N1C[C@H](F)C[C@H]1c1ncc(-c2cc(F)c3c(c2)OC(c2cccc(OC)c2)n2c-3cc3cc(-c4cnc([C@@H]5C[C@@H](F)CN5C(=O)[C@@H](NC(=O)OC)C(C)C)[nH]4)ccc32)[nH]1)C(C)C` (stereo partly specified), the concentration for an effect of 90% (EC90) in assay [1] came to 0.006 nM; in assay [2], 1.59 nM; in assay [3] it was 0.065 nM; in assay [4] it was 39 nM.

In the case of `COC(=O)N[C@H](C(=O)N1CC2(C[C@H]1c1ncc(-c3cc(F)c4c(c3)OC(c3cccc(OC)c3)n3c-4cc4cc(-c5cnc([C@@H]6CC7(CN6C(=O)[C@@H](NC(=O)OC)C(C)C)OCCCO7)[nH]5)ccc43)[nH]1)OCCCO2)C(C)C` (mixture of isomers), the concentration for an effect of 90% (EC90) in assay [1] was found to be 0.018 nM; in assay [2] it was 0.2 nM; in assay [3] it was 0.44 nM; in assay [4], 114 nM; in assay [5] it was 15 nM.

As for `COC(=O)N[C@H](C(=O)N1C[C@H](F)C[C@H]1c1ncc(-c2cc(F)c3c(c2)OC(c2cccc(OC)c2)n2c-3cc3cc(-c4cnc([C@@H]5C[Si](C)(C)CN5C(=O)[C@@H](NC(=O)OC)C(C)C)[nH]4)ccc32)[nH]1)C(C)C` (stereo partly specified), the 90% effect concentration (EC90) in assay [1] is 0.3 nM; in assay [2], 13.6 nM; in assay [3] it was 91.4 nM; in assay [4], 391 nM.

Turning to `COC(=O)N[C@H](C(=O)N1CCC[C@H]1c1ncc(-c2ccc3c(c2)cc2n3C(c3cccc(OC)c3)Oc3cc(-c4cnc([C@@H]5C[C@@H](F)CN5C(=O)[C@@H](NC(=O)OC)C(C)C)[nH]4)cc(F)c3-2)[nH]1)C(C)C` (stereo partly specified), the 90% effect concentration (EC90) in assay [1] is less than 0.002 nM; in assay [2], 0.34 nM; in assay [3], 0.55 nM; in assay [4], 18.8 nM; in assay [5] it was 0.13 nM.

The values above are taken from ChEMBL document CHEMBL3853354, “Structure-activity relationships of proline modifications around the tetracyclic-indole class of NS5A inhibitors” (Bioorg Med Chem Lett, 2016).
